Experimental data from the supplement of paper PMC10307832.

What was measured:
Test in all cases: relative viability (nuclei count vs DMSO), 5 days (fraction); higher = more cells survive
AGI-6780 + Olaparib = compound: O=C(Nc1cccc(C(F)(F)F)c1)Nc1cc(S(=O)(=O)NC2CC2)ccc1-c1ccsc1 [AGI-6780] + O=C(c1cc(Cc2n[nH]c(=O)c3ccccc23)ccc1F)N1CCN(C(=O)C2CC2)CC1 [Olaparib] (partner 8 µM)
In short: (§1)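 One day after seeding in 1536-well plates, lung cancer cell lines were dosed by pin tool. Dosing was either single-drug or a fixed anchor-drug dose plus five library-drug doses (not always all listed) in √10 steps. After 5 days, nuclei were stained in one fix-and-stain step and counted on 4× images, and relative viability is the nuclei count of treated wells over that of vehicle wells, given as the median of duplicate plates.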

AGI-6780 + Linsitinib = compound: O=C(Nc1cccc(C(F)(F)F)c1)Nc1cc(S(=O)(=O)NC2CC2)ccc1-c1ccsc1 [AGI-6780] + C[C@]1(O)C[C@@H](c2nc(-c3ccc4ccc(-c5ccccc5)nc4c3)c3c(N)nccn32)C1 [Linsitinib] (partner 1 µM)
In short: as §1

AGI-6780 + Pemetrexed = compound: O=C(Nc1cccc(C(F)(F)F)c1)Nc1cc(S(=O)(=O)NC2CC2)ccc1-c1ccsc1 [AGI-6780] + Nc1nc2[nH]cc(CCc3ccc(C(=O)N[C@@H](CCC(=O)O)C(=O)O)cc3)c2c(=O)[nH]1 [Pemetrexed] (partner 0.2 µM)
In short: as §1

AGI-6780 + Vorinostat = compound: O=C(Nc1cccc(C(F)(F)F)c1)Nc1cc(S(=O)(=O)NC2CC2)ccc1-c1ccsc1 [AGI-6780] + O=C(CCCCCCC(=O)Nc1ccccc1)NO [Vorinostat] (partner 1 µM)
In short: as §1

| Cell Line | relative viability (AGI-6780 + Olaparib; first compound 0.08 µM) | relative viability (AGI-6780 + Olaparib; first compound 0.253 µM) | relative viability (AGI-6780 + Olaparib; first compound 0.8 µM) | relative viability (AGI-6780 + Olaparib; first compound 2.53 µM) | relative viability (AGI-6780 + Olaparib; first compound 8 µM) | relative viability (AGI-6780 + Linsitinib; first compound 0.08 µM) | relative viability (AGI-6780 + Linsitinib; first compound 0.253 µM) | relative viability (AGI-6780 + Linsitinib; first compound 0.8 µM) | relative viability (AGI-6780 + Linsitinib; first compound 2.53 µM) | relative viability (AGI-6780 + Linsitinib; first compound 8 µM) | relative viability (AGI-6780 + Pemetrexed; first compound 0.08 µM) | relative viability (AGI-6780 + Pemetrexed; first compound 0.253 µM) | relative viability (AGI-6780 + Pemetrexed; first compound 0.8 µM) | relative viability (AGI-6780 + Pemetrexed; first compound 2.53 µM) | relative viability (AGI-6780 + Pemetrexed; first compound 8 µM) | relative viability (AGI-6780 + Vorinostat; first compound 0.08 µM) | relative viability (AGI-6780 + Vorinostat; first compound 0.253 µM) | relative viability (AGI-6780 + Vorinostat; first compound 0.8 µM) | relative viability (AGI-6780 + Vorinostat; first compound 2.53 µM) | relative viability (AGI-6780 + Vorinostat; first compound 8 µM) |
| --- | --- | --- | --- | --- | --- | --- | --- | --- | --- | --- | --- | --- | --- | --- | --- | --- | --- | --- | --- | --- |
| HCC-366 | 0.369 | 0.38 | 0.364 | 0.258 | 0.426 | 0.891 | 0.682 | 0.637 | 0.536 | 0.568 | 0.177 | 0.174 | 0.157 | 0.259 | 0.168 | 0.355 | 0.315 | 0.346 | 0.285 | 0.446 |
| HCC-827 | 0.73 | 0.659 | 0.661 | 0.53 | 0.651 | 1.01 | 0.96 | 0.872 | 0.989 | 0.942 | 0.237 | 0.257 | 0.264 | 0.256 | 0.27 | 0.983 | 0.849 | 0.896 | 0.802 | 1 |
| HOP-62 | 0.47 | 0.303 | 0.197 | 0.536 | 0.452 | 0.945 | 1.3 | 1.08 | 1.04 | 0.826 | 0.336 | 0.303 | 0.378 | 0.346 | 0.385 | 0.61 | 0.833 | 0.655 | 0.617 | 0.813 |
| LC-2-ad | 0.782 | 0.707 | 0.764 | 0.674 | 0.727 | 0.824 | 0.9 | 0.878 | 0.882 | 0.791 | 0.278 | 0.254 | 0.255 | 0.253 | 0.284 | 0.754 | 0.72 | 0.776 | 0.661 | 0.726 |
| LCLC-97TM1 | 0.41 | 0.532 | 0.394 | 0.264 | 0.378 | 0.177 | 0.252 | 0.21 | – | 0.186 | 0.173 | 0.157 | 0.192 | 0.156 | 0.192 | 0.739 | 0.886 | 0.785 | 0.572 | 0.598 |
| LCLC-103H | 0.762 | 0.755 | 0.716 | 0.688 | 0.721 | 1.18 | 1.15 | 0.963 | 1.06 | 1.06 | 0.455 | 0.421 | 0.477 | 0.51 | 0.473 | 0.746 | 0.861 | 0.759 | 0.576 | 0.781 |
| LK-2 | 0.643 | 0.778 | 0.945 | – | 0.755 | 0.617 | 0.646 | 0.536 | – | 0.522 | 0.228 | 0.359 | 0.28 | – | 0.366 | 0.334 | 0.286 | 0.347 | 0.259 | 0.567 |
| LOU-NH91 | 0.942 | 0.887 | 0.94 | 0.912 | 0.89 | 0.99 | 0.921 | 0.857 | 0.901 | 0.93 | 0.402 | 0.395 | 0.382 | 0.389 | 0.429 | 0.954 | 0.92 | 0.953 | 0.926 | 0.913 |
| LU99A | 0.255 | 0.289 | 0.178 | 0.243 | 0.287 | 0.581 | 0.57 | 0.54 | 0.498 | 0.565 | 0.193 | 0.162 | 0.196 | 0.195 | 0.163 | 0.568 | 0.461 | 0.502 | 0.335 | 0.466 |
| LXF-289 | 1.07 | 1.02 | 1.08 | 1.06 | 1.03 | 0.952 | 1.01 | 1.01 | 1.01 | 0.897 | 0.912 | 0.763 | 0.964 | 1.04 | 0.919 | 0.858 | 0.788 | 0.736 | 0.843 | 0.778 |
| NCI-H23 | 0.302 | 0.271 | 0.288 | 0.354 | 0.349 | 0.622 | 0.582 | 0.693 | 0.39 | 0.672 | 0.568 | 0.733 | 0.758 | 0.787 | 0.799 | 0.61 | 0.74 | 0.735 | 0.614 | 0.508 |
| NCI-H727 | 0.65 | 0.757 | 0.705 | 0.597 | 0.66 | 0.285 | 0.331 | 0.325 | 0.235 | 0.285 | – | – | – | – | – | 1.16 | 1.01 | 1.15 | 1.13 | 1.16 |
| NCI-H1299 | 0.982 | 0.964 | 0.948 | 0.908 | 0.961 | 1.01 | 0.987 | 0.941 | 1.05 | 1.04 | – | – | – | – | – | – | – | – | – | – |
| NCI-H1563 | – | – | – | – | – | 1.27 | 1.22 | 1.24 | 1.11 | 1.08 | 0.712 | 0.822 | 0.748 | 0.655 | 0.518 | – | – | – | – | – |
| NCI-H1648 | 0.89 | 0.807 | 0.783 | 0.497 | 0.415 | – | – | – | – | – | 0.655 | 0.884 | 0.864 | 0.841 | 0.779 | 0.377 | 0.689 | 0.566 | 0.423 | 0.419 |
| NCI-H1650 | 0.884 | 0.774 | 0.934 | 0.689 | 0.791 | – | – | – | – | – | 0.4 | 0.367 | 0.366 | 0.418 | 0.358 | 0.583 | 0.592 | 0.646 | 0.489 | 0.549 |
| NCI-H1703 | 0.728 | 0.37 | 0.457 | 0.373 | 0.25 | 1.18 | 0.978 | 0.736 | 0.559 | 0.166 | – | – | – | – | – | – | – | – | – | – |
| NCI-H1792 | 0.266 | 0.404 | 0.576 | – | 0.292 | 0.53 | 0.519 | 0.519 | 0.544 | 0.408 | 0.993 | 0.842 | 0.79 | – | 0.844 | – | – | – | – | – |
| NCI-H2170 | 0.589 | 0.587 | 0.67 | – | 0.59 | – | – | – | – | – | 0.285 | 0.267 | 0.289 | – | 0.272 | 0.882 | 0.996 | 0.835 | – | 0.833 |
| NCI-H2342 | 0.407 | 0.437 | 0.504 | 0.497 | 0.565 | – | – | – | – | – | 0.777 | 0.781 | 0.835 | 0.715 | 0.85 | 0.749 | 0.824 | 0.874 | 0.663 | 1.1 |
